Assay results from PMC10197018 (Pediatric blood & cancer, 2021).
Read-outs that look alike come from different tables or passages of the source. Each block holds one compound with its values, some of them ahead of it.

Tests used:
[1] = tested on: colon carcinoma model; conditions: colon carcinoma model ref 34; cited from earlier work
[2] = cited from earlier work
[3] = tested on: solid tumors; conditions: cited from earlier work
[4] = cited from earlier work; remark: listed apart in the source
[5] = human, in vivo, po, 70 mg/m2
[6] = single-agent sorafenib, same dose regimen ref 17; cited from earlier work
[7] = clinical; conditions: human, plasma, oral
[8] = Plasma pharmacokinetics of sorafenib given with irinotecan; conditions: pediatric patients, combination therapy
[9] = single agent, pediatric phase 1 trials ref 26, 27, 44

SMILES: CCc1c2c(nc3ccc(OC(=O)N4CCC(N5CCCCC5)CC4)cc13)-c1cc3c(c(=O)n1C2)COC(=O)[C@]3(O)CC [Irinotecan]
growth delay [1]: 71% | MTD of oral irinotecan with temozolomide and vincristine ([2]; 5 days for 2 weeks with temozolomide 100 mg/m^2/day ref 33): 35 mg/m^2/daily | MTD, short course oral irinotecan ([2]; daily for 5 days every 21 days, solid tumors, patients < 65 years of age ref 31): 65 mg/m^2/dose | MTD, protracted course of oral irinotecan ([2]; daily × 5 days for 2 weeks, pediatric patients, with cefixime ref 30): 60 mg/m^2/dose | MTD of oral irinotecan with temozolomide and vincristine ([2]; daily × 5 days with temozolomide 150 mg/m^2/day ref 33): 90 mg/m^2/daily | MTD, protracted course of oral irinotecan with temozolomide ([2]; patients with neuroblastoma ref 32): 60 mg/m^2/day | mixed response and/or SD rates [3, 9]: 20–26% | partial response rates [3, 9]: 0 to 6% | absolute oral bioavailability ([4]; irinotecan solution ref 47): 17% | AUC(0-inf) (human, plasma, po, 70 mg/m2): 594 ± 299 ng·h/mL | CMAX (human, plasma, po, 70 mg/m2): 93.9 ± 60.8 ng/mL | Tmax (human, plasma, po, 70 mg/m2): 1.97 ± 0.85 h | mean dose-normalized CMAX (CMAX/D) (oral irinotecan 70 mg/m^2 with sorafenib, range 0.18–3.49): 1.14 ng/mL/mg | dose-normalized AUCINF (AUCINF/D) (oral irinotecan 70 mg/m^2 with sorafenib, range 1.7–19.5): 7.1 ng·h/mL/mg

SMILES: CCc1c2c(nc3ccc(O)cc13)-c1cc3c(c(=O)n1C2)COC(=O)[C@]3(O)CC [SN38, 7-ethyl-10-hydroxy camptothecin]
extent of metabolic conversion from SN38 to SN38-G ([4]; adults ref 45, 46): 6.9–13.4 | CMAX ([4]; oral irinotecan 60 mg/m^2 in adults ref 47): 7.4 ± 4.4 ng/mL | AUCINF ([4]; oral irinotecan study in adults ref 47): 58.7 ± 31 ng·h/mL | t1/2 ([4]; oral study in adults ref 47): 11.9 h | extent of metabolic conversion from SN38 to SN38-G ([4]; other pediatric reports ref 48, 49): 1.6–4.1 | t1/2 ([4]; reported pediatric ranges ref 48): 7.3 to 18.5 h | mean extent of metabolic conversion from SN38 to SN38-G (oral irinotecan 70 mg/m^2 with sorafenib, pediatric patients): 3.73

SMILES: CCc1c2c(nc3ccc(O[C@@H]4O[C@H](C(=O)O)[C@@H](O)[C@H](O)[C@H]4O)cc13)-c1cc3c(c(=O)n1C2)COC(=O)[C@]3(O)CC [SN38-G]
AUCINF [5]: 62.1 ± 35.4 (57.0%) hr•ng/mL | CMAX [5]: 5.50 ± 3.38 (61.4%) ng/mL | Tmax [5]: 3.17 ± 1.09 (34.2%) hr | AUCINF ([4]; human, in vivo): 30.8 to 153 ng·h/mL | CMAX ([4]; in vivo, po, 60 mg/m2): 21.7 ± 15.2 ng/mL | AUCINF ([4]; in vivo, po): 356 ± 348 ng·h/mL

Tmax [7]: 6.4 h | age-dependent difference in AUC [8]: no significant age-dependent difference
SMILES: CNC(=O)c1cc(Oc2ccc(NC(=O)Nc3ccc(Cl)c(C(F)(F)F)c3)cc2)ccn1 [Sorafenib]
growth delay [1]: 100% | prolonged SD ([3]; phase 2, Wilms tumor, 2 of 10 patients ref 18): 20% | responses ([3]; phase 2, cohort with rhabdomyosarcoma ref 18): no responses | Tmax [6]: 4.98 h | mean CMAX/D [6]: 8.33 ng/mL/mg
